Reference: patent US4160016A, “Receptor fluorescent immunoassay” (Syva Company, priority 1977, dated 1979)
Where “and” joins values, the source holds several entries; their conditions need not be identical. Equal values may be shown once.

What was measured:
Assay type in all cases: biochemical
[1] = test system: Anti-Fluorescein and Anti-Morphine; experiment: Table I fluorescence readings: fluorescein-morphine with antifluorescein and/or anti-morphine, with and without codeine
Procedure: In order to establish the utility of the subject compounds, the following assays were carried out. […] The fluorometer employed was a Perkin-Elmer MPF-2a. Antibodies to the fluorescers had been prepared according to normal procedures. The bovine serum albumin conjugates were injected into sheep, and after appropriate periods of time, the antibodies harvested according to conventional techniques. For typical methods of obtaining antibodies, see Microbiology, Hober Medical Division, Harper and Rowe, 1969; Landsteiner, Specificity of Seriological Reactions, Dover Publications, New York, 1962; Kabat, et al, supra; and Williams, et al, Methods in Immunology and Immunochemistry, Vol. 1, Academic Press, New York, 1967.
(§1) The reagents which were employed were as follows: FLUMO (fluorescein-morphine conjugate, Example V) was 3× 10^-6 M in water; antifluorescein was 5.6× 10^-6 M in binding sites, in water, 0.05M phosphate, pH 8.0; anti-morphine was 2× 10^-4 M in binding sites, 0.05M tris-HCl, pH 8.0, in saline solution; buffer was Tris/saline 0.05M/l, pH 8,0. Opiate solutions had 1,000 μg/ml of codeine. The solution was then diluted to a final volume of 4 ml with buffer.
(§2) All of the determinations were made at a sensitivity setting on the instrument of 4. Excitation light was 460 nm and the emitted light read at 516 nm, with a band width of 10 nm.
(§3) Where a reading is given but the absence of any material is indicated, only buffer was present in the cell. The reading times indicate the interval of time from the time of the first reading to the reading for the result which is reported, the first reading being made within as short an interval as possible of the mixing.

[2] = test system: Anti-Morphine; experiment: Fluorescence assay for codeine with morphine-fluorescein conjugate (Ex. V) and antimorphine (Table 2)
From the text: The following tables indicate the results.

[3] = test system: Anti-Morphine; experiment: Fluorescence quenching of fluorescein-morphine by anti-morphine alone (Table I, cell No. 3); settings: for Signal Intensity: fluorescein-morphine 5 μl + anti-morphine 5 μl
Procedure: as §1, §2, §3

**Q.** COc1ccc2c3c1O[C@H]1[C@@H](O)C=C[C@H]4[C@@H](C2)N(C)CC[C@@]341 [Codeine, codeine, reference compound] was tested. Which “change in signal intensity” value ([1]; cell No. 1, codeine added to mixture of the two antibodies, over 90 minutes) did it give?
**A.** 0.5 units

**Q.** What about the “change in signal intensity” value ([1]; cell No. 3, both antibodies with codeine and fluorescein-morphine, over 90 minutes) of the same compound?
**A.** 6.5 units

**Q.** What about the “Signal Intensity” value ([1]; codeine 5 μl + anti-fluorescein + anti-morphine, no fluorescein-morphine, 90 min, cell No. 1) of the same compound?
**A.** 6

**Q.** What about the “Signal Intensity” value ([1]; codeine 5 μl + anti-fluorescein + anti-morphine, no fluorescein-morphine, first reading, cell No. 1) of the same compound?
**A.** 5.5

**Q.** What about the “Signal Intensity” value ([1]; codeine 5 μl added to fluorescein-morphine + anti-fluorescein + anti-morphine, 90 min, cell No. 3) of the same compound?
**A.** 16

**Q.** And the “Signal Intensity” value ([1]; codeine 5 μl added to fluorescein-morphine + anti-fluorescein + anti-morphine, first reading, cell No. 3)?
**A.** 20

**Q.** What about the change in fluorescence ([1]; codeine introduced into mixture of fluorescein-morphine and antibodies to fluorescein and morphine) of the same compound?
**A.** a detectable change in fluorescence is obtained

**Q.** And the “fluorescence quenched by the anti-morphine that is recovered with the addition of codeine” value [2]?
**A.** about 30%

**Q.** And the “Fluorescence Signal” value ([2]; Ex. V + anti-morphine + codeine 1.9 × 10^-7 M)?
**A.** 62.5 arbitrary units

**Q.** And the “Fluorescence Signal” value ([2]; Ex. V + anti-morphine + codeine 6.7 × 10^-7 M)?
**A.** 64.5 arbitrary units

**Q.** What about the “Fluorescence Signal” value ([2]; Ex. V + anti-morphine + codeine 9.5 × 10^-8 M) of the same compound?
**A.** 61 arbitrary units

**Q.** What about the “concentration of codeine detectible” value ([2]; with the particular materials employed) of the same compound?
**A.** about 10^-7

**Q.** Which results are given for CN1CC[C@]23c4c5ccc(OCC(=O)Nc6ccc7c(c6)C6(OC7=O)c7ccc(O)cc7Oc7cc(O)ccc76)c4O[C@H]2[C@@H](O)C=C[C@H]3[C@H]1C5 [Ex. V]?
**A.** change in signal intensity ([1]; cell No. 2, no codeine, in the first 5 minutes): 1.5 units; change in signal intensity ([1]; cell No. 2, no codeine, over 90 minutes): 2.5 units; Signal Intensity ([1]; fluorescein-morphine 5 μl + anti-fluorescein 5 μl + anti-morphine 5 μl, first reading, cells No. 2 and 3): 25 and 23; Signal Intensity ([1]; fluorescein-morphine 5 μl + anti-fluorescein 5 μl, cell No. 2): 21; Signal Intensity ([1]; fluorescein-morphine 5 μl alone, buffer pH 8.0, ex 460 nm, em 516 nm, cells No. 2 and 3): 62 and 46; Signal Intensity ([1]; fluorescein-morphine + anti-fluorescein + anti-morphine (5 μl each), 5 min, cells No. 2 and 3): 26.5 and 22.5; Signal Intensity ([1]; fluorescein-morphine + anti-fluorescein + anti-morphine (5 μl each), 90 min, cell No. 2): 27.5; Signal Intensity ([3]; 5 min): 35; Signal Intensity ([3]; first reading): 35.5; reduction in signal intensity ([3]; fluorescein-morphine combined with antimorphine): approximately 25%; Fluorescence Signal ([2]; Ex. V 1.9 × 10^-8 M alone): 79 arbitrary units
